Measured values from patent US12570662B2, “Substituted pyrrolo[1,2-b]pyridazines as bifunctional degraders of interleukin-1 receptor-associated kinases” (Nurix Therapeutics, Inc., priority 2021, dated 2026).

Biological target: T1, IRAK4 (Homo sapiens, UniProt Q9NWZ3)
T1 construct: C-terminal HiBiT-tagged Jurkat cells (polyclonal cell line or clone 8D5); endogenous in cells; host or cells: Jurkat cells (polyclonal cell line or clone 8D5), HiBiT-tagged
T1 sequence (Q9NWZ3 1-460): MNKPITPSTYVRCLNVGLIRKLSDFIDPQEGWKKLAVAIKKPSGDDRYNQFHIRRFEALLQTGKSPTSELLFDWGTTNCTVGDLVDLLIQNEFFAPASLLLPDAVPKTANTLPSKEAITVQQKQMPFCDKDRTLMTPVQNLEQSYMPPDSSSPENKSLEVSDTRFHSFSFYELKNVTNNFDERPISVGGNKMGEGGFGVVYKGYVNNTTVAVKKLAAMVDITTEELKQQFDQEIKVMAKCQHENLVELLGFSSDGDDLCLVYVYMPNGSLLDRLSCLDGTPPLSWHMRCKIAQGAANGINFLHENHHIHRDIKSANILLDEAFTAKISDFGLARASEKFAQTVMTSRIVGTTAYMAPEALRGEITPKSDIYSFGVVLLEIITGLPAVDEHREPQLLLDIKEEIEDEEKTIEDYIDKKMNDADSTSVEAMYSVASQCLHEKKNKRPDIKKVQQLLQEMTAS
Assay: IRAK4 Degradation HiBit Assay
Format: cell-based
Settings: C-terminal HiBiT-tagged Jurkat cells, 4 hrs incubation; for DC50: % IRAK4 remaining, four-parameter fit (IC50 used as DC50); for Dmax: from fit of % IRAK4 remaining, read-out: Dmax
Protocol: Compound dilution series (11-point, 3.16-fold dilutions in DMSO, columns 1-11 and 12-22) at 500× the final required concentrations were prepared in Labcyte LDV 384-well plates (cat. no. LP-0200) using a Labcyte Echo 550 Liquid Handler. The 500× solutions ranged from 5 mM to 0.5 μM (final assay concentration range 10 μM to 0.1 nM). Using the Echo, the 500× solutions were stamped into white, 384-well assay plates (Corning, cat. no. 3570) at 60 nL/well. The following assay plate controls were also stamped at 60 nL/well: DMSO in wells E23-P23 (NC, Negative Control, maximum signal), 5 mM solution control compound al in wells A23-D23 and M24-P24 (AC, Active Control, minimum signal/background, 10 μM final assay concentration), control compound al dilution series in wells […] (12-point, 4-fold dilutions). C-terminal HiBiT-tagged Jurkat cells (polyclonal cell line or clone 8D5) were plated at 1×10^6 cells/mL, 30 μL/well (3×10^4 cells/well) in complete RPMI (10% FBS, 1% L-glutamine). Cells were incubated for 4 hrs at 32° C./6% CO2. Compound al has the following structure:
Following incubation, 30 μL of complete Nano-Glo HiBiT Lytic Detection Reagent (Nano-Glo HiBiT Lytic Buffer with 1:50 Nano-Glo HiBiT Lytic Substrate and 1:100 LgBiT Protein; Promega cat. no. N3040) was added. Cells were further incubated for 10 min at room temperature (RT). Luminescence units (LU) were read on an EnVision plate reader (Perkin Elmer, 0.1 sec per well). Percent IRAK4 remaining per sample was calculated as follows: […]
Using Graphpad Prism, % IRAK4 remaining values were plotted as a function of compound concentration. To determine DC50 and Dmax values, resulting curves were fit to the Prism curve-fitting equation “log (inhibitor) vs response-Variable slope (four parameters)” (reported best fit value IC50 used as DC50). Table 1 summarizes the biological data of Compounds of Examples 1-137 and 142-145 obtained from the assays described herein.

| Structure (SMILES) | DC50 [nM] | Dmax [%] |
| --- | --- | --- |
| N#Cc1cnn2c(-c3cc(NC4CCOCC4)c(-c4nnc(N5CC6CCC(C5)N6C(=O)C5CCN(c6ccc([C@@H]7CCC(=O)NC7=O)cn6)CC5)s4)cn3)ccc2c1 (racemic) [Example 29, rac-7-(5-{5-[8-(1-{5-[(3R)-2,6-dioxopiperidin-3-yl]pyridin-2-yl}piperidine-4-carbonyl)-3,8-diazabicyclo[3.2.1]octan-3-yl]-1,3,4-thiadiazol-2-yl}-4-[(oxan-4-yl)amino]pyridin-2-yl)pyrrolo[1,2-b]pyridazine-3-carbonitrile] | 9 | 79 |
| CNc1cc(-c2ccc3cc(C#N)cnn23)ncc1-c1nnc(C2CCC(C(=O)N3CCN(c4ccc([C@@H]5CCC(=O)NC5=O)cc4)CC3)CC2)s1 (mixture of isomers) [Example 32, 7-[4-(methylamino)-5-{5-[(1rs&,4rs&)-4-(4-{4-[(3RS)-2,6-dioxopiperidin-3-yl]phenyl}piperazine-1-carbonyl)cyclohexyl]-1,3,4-thiadiazol-2-yl}pyridin-2-yl]pyrrolo[1,2-b]pyridazine-3-carbonitrile] | 10 | 54 |
| N#Cc1cnn2c(-c3cc(NC4CCOCC4)c(-c4nnc(N5CC6CCC(C5)N6CC5CCN(c6ccc([C@@H]7CCC(=O)NC7=O)cn6)CC5)s4)cn3)ccc2c1 (racemic) [Example 34, rac-7-[5-(5-{8-[(1-{5-[(3R)-2,6-dioxopiperidin-3-yl]pyridin-2-yl}piperidin-4-yl)methyl]-3,8-diazabicyclo[3.2.1]octan-3-yl}-1,3,4-thiadiazol-2-yl)-4-[(oxan-4-yl)amino]pyridin-2-yl]pyrrolo[1,2-b]pyridazine-3-carbonitrile] | 24 | 97 |
| N#Cc1cnn2c(-c3cc(NC4CCOCC4)c(-c4nnc(N5CCN(C(=O)C6CCN(c7ccc(C8CCC(=O)NC8=O)cn7)CC6)CC5)s4)cn3)ccc2c1 (racemic) [Example 37, rac-7-(5-{5-[4-(1-{5-[(3R)-2,6-dioxopiperidin-3-yl]pyridin-2-yl}piperidine-4-carbonyl)piperazin-1-yl]-1,3,4-thiadiazol-2-yl}-4-[(oxan-4-yl)amino]pyridin-2-yl)pyrrolo[1,2-b]pyridazine-3-carbonitrile] | 13 | 108 |
| CNc1cc(-c2ccc3cc(C#N)cnn23)ncc1-c1nnc([C@H]2CC[C@H](CN3CCC(c4ccc([C@@H]5CCC(=O)NC5=O)cn4)CC3)CC2)s1 (racemic) [Example 38, 7-[4-(methylamino)-5-{5-[(1r,4r)-4-[(4-{5-[(3RS)-2,6-dioxopiperidin-3-yl]pyridin-2-yl}piperidin-1-yl)methyl]cyclohexyl]-1,3,4-thiadiazol-2-yl}pyridin-2-yl]pyrrolo[1,2-b]pyridazine-3-carbonitrile] | 12 | 109 |
| CNc1cc(-c2ccc3cc(C#N)cnn23)ncc1-c1nnc(N2CC3(CCN(C(=O)C4CCN(c5ccc(C6CCC(=O)NC6=O)cn5)CC4)CC3)C2)s1 (racemic) [Example 40, rac-7-(5-{5-[7-(1-{5-[(3R)-2,6-dioxopiperidin-3-yl]pyridin-2-yl}piperidine-4-carbonyl)-2,7-diazaspiro[3.5]nonan-2-yl]-1,3,4-thiadiazol-2-yl}-4-(methylamino)pyridin-2-yl)pyrrolo[1,2-b]pyridazine-3-carbonitrile] | 19 | 114 |
| CNc1cc(-c2ccc3cc(C#N)cnn23)ncc1-c1nnc(N2CC3CCC(C2)N3C(=O)C2CCN(c3ccc([C@H]4CCC(=O)NC4=O)cn3)CC2)s1 (racemic) [Example 46, rac-7-(5-{5-[8-(1-{5-[(3R)-2,6-dioxopiperidin-3-yl]pyridin-2-yl}piperidine-4-carbonyl)-3,8-diazabicyclo[3.2.1]octan-3-yl]-1,3,4-thiadiazol-2-yl}-4-(methylamino)pyridin-2-yl)pyrrolo[1,2-b]pyridazine-3-carbonitrile] | 6 | 111 |

Further molecules by falling DC50, results first:

| DC50 [nM] | Dmax [%] | Structure (SMILES) |
| --- | --- | --- |
| 45 | 101 | N#Cc1cnn2c(-c3cc(NC4CCOCC4)c(-c4nnc(N5CCC6(CCN(CC7CCN(c8ccc(C9CCC(=O)NC9=O)cn8)CC7)CC6)CC5)s4)cn3)ccc2c1 (racemic) [Example 33, rac-7-[5-(5-{9-[(1-{5-[(3R)-2,6-dioxopiperidin-3-yl]pyridin-2-yl}piperidin-4-yl)methyl]-3,9-diazaspiro[5.5]undecan-3-yl}-1,3,4-thiadiazol-2-yl)-4-[(oxan-4-yl)amino]pyridin-2-yl]pyrrolo[1,2-b]pyridazine-3-carbonitrile] |
| 27 | 105 | CCN(C(=O)C1CCN(c2ccc([C@@H]3CCC(=O)NC3=O)cn2)CC1)[C@H]1CC[C@H](c2nnc(-c3cnc(-c4ccc5cc(C#N)cnn45)cc3NC)s2)CC1 (racemic) [Example 35, 1-{5-[(3RS)-2,6-dioxopiperidin-3-yl]pyridin-2-yl}-N-ethyl-N-[(1r,4r)-4-[5-(6-{3-cyanopyrrolo[1,2-b]pyridazin-7-yl}-4-(methylamino)pyridin-3-yl)-1,3,4-thiadiazol-2-yl]cyclohexyl]piperidine-4-carboxamide] |
| 20 | 105 | CCN(CC1CCN(c2ccc([C@@H]3CCC(=O)NC3=O)cn2)CC1)[C@H]1CC[C@H](c2nnc(-c3cnc(-c4ccc5cc(C#N)cnn45)cc3NC)s2)CC1 (racemic) [Example 36, 7-[4-(methylamino)-5-{5-[(1r,4r)-4-{[(1-{5-[(3RS)-2,6-dioxopiperidin-3-yl]pyridin-2-yl}piperidin-4-yl)methyl](ethyl)amino}cyclohexyl]-1,3,4-thiadiazol-2-yl}pyridin-2-yl]pyrrolo[1,2-b]pyridazine-3-carbonitrile] |
| 19 | 108 | CNc1cc(-c2ccc3cc(C#N)cnn23)ncc1-c1nnc([C@H]2CC[C@H](C(=O)N3CCN(c4ccc([C@@H]5CCC(=O)NC5=O)cn4)CC3)CC2)s1 (racemic) [Example 39, 7-[4-(methylamino)-5-{5-[(1r,4r)-4-(4-{5-[(3RS)-2,6-dioxopiperidin-3-yl]pyridin-2-yl}piperazine-1-carbonyl)cyclohexyl]-1,3,4-thiadiazol-2-yl}pyridin-2-yl]pyrrolo[1,2-b]pyridazine-3-carbonitrile] |
| 14 | 111 | N#Cc1cnn2c(-c3cc(NC4CCOCC4)c(-c4nnc(N5CCN(CC6CCN(c7ccc(C8CCC(=O)NC8=O)cn7)CC6)CC5)s4)cn3)ccc2c1 (racemic) [Example 43, 7-(5-{5-[4-({1-[5-(2,6-dioxopiperidin-3-yl)pyridin-2-yl]piperidin-4-yl}methyl)piperazin-1-yl]-1,3,4-thiadiazol-2-yl}-4-(oxan-4-ylamino)pyridin-2-yl)pyrrolo[1,2-b]pyridazine-3-carbonitrile] |
| 13 | 113 | CNc1cc(-c2ccc3cc(C#N)cnn23)ncc1-c1nnc(N2CCN(C(=O)CC[C@@H]3CCN(c4ccc([C@@H]5CCC(=O)NC5=O)cn4)C3)CC2)s1 (racemic) [Example 45, 7-{5-[5-(4-{3-[(3RS)-1-{5-[(3RS&)-2,6-dioxopiperidin-3-yl]pyridin-2-yl}pyrrolidin-3-yl]propanoyl}piperazin-1-yl)-1,3,4-thiadiazol-2-yl]-4-(methylamino)pyridin-2-yl}pyrrolo[1,2-b]pyridazine-3-carbonitrile] |
| 12 | 114 | CNc1cc(-c2ccc3cc(C#N)cnn23)ncc1-c1nnc([C@H]2CC[C@H](CN3CCN(c4ccc([C@@H]5CCC(=O)NC5=O)cn4)CC3)CC2)s1 (racemic) [Example 44, 7-[4-(methylamino)-5-{5-[(1r,4r)-4-[(4-{5-[(3RS)-2,6-dioxopiperidin-3-yl]pyridin-2-yl}piperazin-1-yl)methyl]cyclohexyl]-1,3,4-thiadiazol-2-yl}pyridin-2-yl]pyrrolo[1,2-b]pyridazine-3-carbonitrile] |
